Patent US9062284B2, “Uses and detection of herbicide resistance genes for resistance to aryloxyalkanoate herbicides” (Dow ArgoSciences LLC, priority 2007, dated 2015)

Tests used:
[1] = test system: PAT/Cry1F-transformed tobacco; test: 2,4-D DMA response of PAT/Cry1F transformed control T0 tobacco; assay type: in vivo, Nicotiana tabacum; conditions: 14 days after application
From the text: (§1) Following the acclimation in the greenhouse T0 plants were then randomly assigned to various rates of 2,4-D DMA ranging from 140 to 2240 g ae/ha at […] increments. For tobacco, 140 g ae/ha 2,4-D is an effective dose to distinguish sensitive plants from ones with meaningful levels of resistance.

[2] = test system: AAD-13 (v1) gene T0 tobacco plants; test: 2,4-D DMA response of AAD-13 (v1) T0 tobacco; assay type: in vivo, Nicotiana tabacum; conditions: for % Injury 20-40% (individuals) / % Injury <20% (individuals) / % Injury >40% (individuals) / % Injury Ave: 14 days after application
From the text: as §1

[3] = test system: Wildtype (untransformed control) Arabidopsis; test: R-dichlorprop response of wildtype Arabidopsis; assay type: in vivo, Arabidopsis thaliana; conditions: 800 g ae/ha postemergence, 14 DAT
Procedure: All auxin herbicide applications were made using the DeVilbiss sprayer as described above to apply 703 L/ha spray volume (0.4 ml solution/3-inch pot) or applied by track sprayer in a 187 L/ha spray volume. 2,4-D used was either technical grade (Sigma, St. Louis, Mo.) dissolved in DMSO and diluted in water (<1% DMSO final concentration) or the commercial dimethylamine salt formulation (456 g ae/L, NuFarm, St Joseph, Mo.). Dichlorprop used was commercial grade formulated as potassium salt of R-dichlorprop (600 g ai/L, AH Marks). As herbicide rates increased beyond 800 g ae/ha, the pH of the spray solution became exceedingly acidic, burning the leaves of young, tender Arabidopsis plants and complicating evaluation of the primary effects of the herbicides.
The fact that AAD-1 (v3) will metabolize R-dichlorprop well enough to impart commercially acceptable tolerance is one distinguishing characteristic that separates the three genes (Table 12 and Example 7 of PCT/US2006/042133 (Wright et al., filed Oct. 27, 2006). AAD-1 and AAD-13 are considered R- and S-specific α-ketoglutarate dioxygenases, respectively.

[4] = test system: Segregating T2 AAD-13 (v1) Arabidopsis plants (pDAB4114.01.094); test: Foliar pyridyloxyacetate response of segregating T2 AAD-13 (v1) Arabidopsis; assay type: in vivo, Arabidopsis thaliana
Procedure: The ability of AAD-13 (v1) to provide resistance to other aryloxyalkanoate auxin herbicides in transgenic Arabidopsis was determined by foliar application of various substrates. T2 generation Arabidopsis seed was stratified, and sown into selection trays much like that of Arabidopsis (Example 6.4). A transformed-control line containing PAT and the insect resistance gene Cry1F was planted in a similar manner. Seedlings were transferred to individual 3-inch pots in the greenhouse. All plants were sprayed with the use of a track sprayer set at 187 L/ha. The plants were sprayed with a range of pyridyloxyacetate herbicides: 200-800 g ae/ha triclopyr (Garlon 3A, Dow AgroSciences) and 200-800 g ae/ha fluoroxypyr (Starane, Dow AgroSciences). The 2,4-D metabolite resulting from AAD-13 activity, 2,4-dichlorophenol (DCP, Sigma) (at a molar equivalent to 280-2240 g ae/ha of 2,4-D, technical grade will also be tested. All applications were formulated in water. Each treatment was replicated 3-4 times. Plants were evaluated at 3 and 14 days after treatment.

Compound: CNC.O=C(O)COc1ccc(Cl)cc1Cl [2,4-D DMA]
- % Injury 20-40% (individuals) ([1]; 140 g ae/ha): 1
- % Injury <20% (individuals) ([1]; 140 g ae/ha): 0
- % Injury >40% (individuals) ([1]; 140 g ae/ha): 2
- % Injury Ave ([1]; 140 g ae/ha): 47.0%
- % Injury 20-40% (individuals) ([1]; 560 g ae/ha): 0
- % Injury <20% (individuals) ([1]; 560 g ae/ha): 0
- % Injury >40% (individuals) ([1]; 560 g ae/ha): 3
- % Injury Ave ([1]; 560 g ae/ha): 75.0%
- % Injury 20-40% (individuals) ([1]; 2240 g ae/ha): 0
- % Injury <20% (individuals) ([1]; 2240 g ae/ha): 0
- % Injury >40% (individuals) ([1]; 2240 g ae/ha): 3
- % Injury Ave ([1]; 2240 g ae/ha): 97.0%
- % Injury 20-40% (individuals) ([2]; 140 g ae/ha): 0
- % Injury <20% (individuals) ([2]; 140 g ae/ha): 2
- % Injury >40% (individuals) ([2]; 140 g ae/ha): 0
- % Injury Ave ([2]; 140 g ae/ha): 8.0%
- % Injury 20-40% (individuals) ([2]; 560 g ae/ha): 0
- % Injury <20% (individuals) ([2]; 560 g ae/ha): 2
- % Injury >40% (individuals) ([2]; 560 g ae/ha): 0
- % Injury Ave ([2]; 560 g ae/ha): 3.0%
- % Injury 20-40% (individuals) ([2]; 2240 g ae/ha): 0
- % Injury <20% (individuals) ([2]; 2240 g ae/ha): 2
- % Injury >40% (individuals) ([2]; 2240 g ae/ha): 0
- % Injury Ave ([2]; 2240 g ae/ha): 5.0%
- rate to which robust tolerance is provided ([2]; T0 tobacco): at least 2240 g ae/ha

Compound: C[C@@H](Oc1ccc(Cl)cc1Cl)C(=O)O [R-dichloroprop, R-dichlorprop]
- % Injury 20-40% (individuals) [3]: 0
- % Injury <20% (individuals) [3]: 0
- % Injury >40% (individuals) [3]: 20
- % Injury Ave [3]: 100%

Compound: Nc1c(Cl)c(F)nc(OCC(=O)O)c1Cl [fluoroxypyr]
- Ave. % Injury 14DAT ([4]; 200 g ae/ha foliar-applied): 10%
- Ave. % Injury 14DAT ([4]; 400 g ae/ha foliar-applied): 16%
- Ave. % Injury 14DAT ([4]; 800 g ae/ha foliar-applied): 55%
- rate up to which robust resistance is provided ([4]; foliar application): up to 400 g ae/ha

Compound: O=C(O)COc1nc(Cl)c(Cl)cc1Cl [triclopyr]
- Ave. % Injury 14DAT ([4]; 200 g ae/ha foliar-applied): 75%
- Ave. % Injury 14DAT ([4]; 400 g ae/ha foliar-applied): 90%
- Ave. % Injury 14DAT ([4]; 800 g ae/ha foliar-applied): 100%
